Measurements taken from patent publication US7592326B2, “Method for stimulating the immune, inflammatory or neuroprotective response” (priority 2004, dated 2009).

Tests used:
[1] = system: autologous or allogeneic PBMC; experiment: Mixed leukocyte reaction with irradiated DCs ([3H]thymidine incorporation); type: cell-based, human; conditions: 100 μM c-di-GMP-treated immature DCs
Description: DCs were stimulated for 24 h with c-di-GMP or LPS and were then extensively washed and suspended in RPMI 1640 supplemented with 10% human serum, L-glutamine, and penicillin/streptomicin, irradiated (3,000 rad from a ^137Cs source) and added in graded doses to 1×10^5 responder T cells in 96 flat-bottom microplates. Responder cells were autologous or allogeneic PBMC. After 5 days, cultures were pulsed for 18 h with 0.5 µCi/well of [^3H]thymidine. Cells were then harvested onto glass fiber filters, and [^3H]thymidine incorporation was measured by liquid scintillation spectroscopy.

DCs = experiment: DC apoptosis (FITC-Annexin V/PI double staining); type: cell-based, human; conditions: 24 h
Description: FITC-Annexin V/Propidium Iodure (PI) double staining was used to detect apoptosis of DCs treated with c-di-GMP. Immature and mature DCs, untreated or treated with c-di-GMP for 24 h, were harvested and washed twice with ice cold PBS; specific binding of FITC-annexin V and staining with PI was performed with an apoptosis detection kit accordingly to the manufacturer's instructions. The cells were then analyzed by flow cytometry.

[2] = system: TLR1/2, TLR3, TLR4/MD2, TLR5, TLR2/6, TLR7, TLR8, and TLR9; experiment: HEK cells stably transfected with TLRs, IL-8 transcripts by QPCR; type: cell-based, human; conditions: 200 uM, 3 hours
Description: To test this hypothesis, human embryonic kidney (HEK) cells, which are normally unresponsive to TLR ligand stimulation, were stably transfected with TLR1/2, TLR3, TLR4/MD2, TLR5, TLR2/6, TLR7, TLR8, and TLR9. HEK 293 cells were cultured in Dulbecco's modified Eagle's medium supplemented with 10% fetal bovine serum. Cells were plated in 24-well tissue culture plates (1×10^5 cells/well) and maintained in the above medium for 24 h. The following day, cells were either left untreated or incubated with the indicated amount of TLR ligand. After the 3 hour treatment period, cells were harvested for total RNA using the Qiagen RNeasy kit per the manufacturer's protocol. The total RNA was converted to cDNA and QPCR was performed to determine the number of copies of IL-8.

[3] = system: K. pneumoniae strain 43816, serotype 2; experiment: Survival in murine Klebsiella pneumonia; type: in vivo
[4] = system: cytokine mRNA in whole lung; experiment: Cytokine mRNA levels in whole lung homogenates (quantitative PCR); type: in vivo, Balb/c mice
S. pneumoniae strain D39 = experiment: Mouse pneumococcal pneumonia (proposed); type: in vivo; conditions: 200 nmol 24- and 48 hours prior; 1×10^5 CFU D39
[5] = system: Primary hippocampal cells; experiment: Staurosporine-induced cell death in primary hippocampal cultures (CellTiter 96 AQueous Assay); type: cell-based
Description: To assess the role of cyclic dinucleotides in modulating the neurological response, i.e., prevent cell death induced by staurosporine (STS) in primary hippocampal nerve cells, the effects of c-di-GMP on hippocampal cells was analyzed. Primary hippocampal cells were prepared according to previously described methods (Pereira et al., 1993). Briefly, the hippocampi were dissected from the brain of 18-day-old fetal rats. Following enzymatic and mechanical dissociation, cells were plated at a density of 100,000 cells/well in 96-well plates pre-coated with matrigel. At the 7th day after plating, cultures were subjected to one of the following treatments: (i) vehicle (24 h), (ii) STS (100 nM, 22 h), (iii) c-di-GMP (24 h), (iv) c-di-GMP (2 h) followed by c-di-GMP -plus-STS (22 h), (v) c-di-GMP -plus-STS (24 h), or (vi) STS (2 h) followed by c-di-GMP -plus-STS (22 h). At the end of the treatments, cell viability was analyzed using CellTiter 96® AQueous Assay (Promega). The assay involves the spectrophotometric measurement (at 490 nm) of the mitochondrial conversion of a tetrazolium dye into a colorful product. The absorbance of the assay correlates with the number of metabolically active cells.

Nc1nc(=O)c2ncn([C@@H]3OC4COP(=O)(O)O[C@H]5[C@@H](O)[C@H](n6cnc7c(=O)nc(N)[nH]c76)O[C@@H]5COP(=O)(O)OC4C3O)c2[nH]1 (some centres unmarked) [c-di-GMP, Bis(3′→5′)-cyclic diguanylic acid]
autologous T cell proliferation, increase compared to untreated DCs ([1]; FIG. 4A): five-fold | heterologous T cell proliferation, increase compared to untreated DCs ([1]; FIG. 4B): two-fold | Early apoptosis (% of annexin V^+/PI^− cells) (DCs; cdiGMP 5 μM): 23% | Late apoptosis (% of annexin V^+/PI^+ cells) (DCs; cdiGMP 5 μM): 36% | Early apoptosis (% of annexin V^+/PI^− cells) (DCs; cdiGMP 50 μM): 31% | Late apoptosis (% of annexin V^+/PI^+ cells) (DCs; cdiGMP 50 μM): 40% | Early apoptosis (% of annexin V^+/PI^− cells) (DCs; cdiGMP 100 μM): 18% | Late apoptosis (% of annexin V^+/PI^+ cells) (DCs; cdiGMP 100 μM): 42% | effect on DC apoptosis (DCs; immature and mature DCs): did not appear to have any effect | stimulation of LPS-sensitive MD2/TLR4-HEK cell line [2]: failed to stimulate | activation of TLR expressing HEK cell lines (IL-8 transcripts) ([2]; FIG. 14): none of the TLR expressing cell lines were activated | survival following i.t. Klebsiella challenge ([3]; 200 nmoles i.n. 48 and 24 hrs prior, Balb/c mice, vehicle approx. 10%, p<0.05, FIG. 15): significantly increased | survival following i.t. Klebsiella challenge ([3]; 200 nmoles s.q. 48 and 24 hrs prior, Balb/c mice, p<0.05, FIG. 15): significantly increased | survival following i.t. Klebsiella challenge ([3]; given concomitantly and 6 hrs post K. pneumoniae, data not shown): no increase in survival | IL-12 p40 levels vs control c-GMP ([4]; 24 and 48 hrs post bacterial challenge): increased | MIP-2 mRNA, increase over infected control (c-GMP) ([4]; 24 hr post Klebsiella challenge, p<0.05, FIG. 17D): 2 fold | IP-10 and IFN-gamma mRNA levels vs control c-GMP ([4]; 24 hrs post K. pneumoniae, p<0.05): significantly higher | type 1 cytokines IL-12 p40, IFN-gamma, and IP-10 in the lungs ([4]; i.n. pre-treatment, time 0 (pre-infection)): induction | induction of TNF-α in response to i.t. bacterial administration ([4]; pretreatment, data not shown): did not significantly alter | bacterial counts in the lungs (S. pneumoniae strain D39): decreased bacterial counts | number of metabolic active cells vs STS alone ([5]; 0.1-10 μM applied together with or after STS): on average higher | STS-induced cell death, pre-treatment ([5]; 0.1-10 μM, 2 h before STS 100 nM, FIG. 5): prevented the STS-induced cell death | toxicity to primary hippocampal cultures ([5]; 24 h): not toxic
